According to ChEMBL document CHEMBL5696441 (Nat Chem Biol, 2011):

Legend:
[1] = target: T1, Tyrosine-protein kinase Tec (Homo sapiens) (UniProt P42680); experiment: Inhibition of TEC (unknown origin) assessed as remaining activity at 1 uM by Kinome scan method relative to control
T1 sequence (whole entry): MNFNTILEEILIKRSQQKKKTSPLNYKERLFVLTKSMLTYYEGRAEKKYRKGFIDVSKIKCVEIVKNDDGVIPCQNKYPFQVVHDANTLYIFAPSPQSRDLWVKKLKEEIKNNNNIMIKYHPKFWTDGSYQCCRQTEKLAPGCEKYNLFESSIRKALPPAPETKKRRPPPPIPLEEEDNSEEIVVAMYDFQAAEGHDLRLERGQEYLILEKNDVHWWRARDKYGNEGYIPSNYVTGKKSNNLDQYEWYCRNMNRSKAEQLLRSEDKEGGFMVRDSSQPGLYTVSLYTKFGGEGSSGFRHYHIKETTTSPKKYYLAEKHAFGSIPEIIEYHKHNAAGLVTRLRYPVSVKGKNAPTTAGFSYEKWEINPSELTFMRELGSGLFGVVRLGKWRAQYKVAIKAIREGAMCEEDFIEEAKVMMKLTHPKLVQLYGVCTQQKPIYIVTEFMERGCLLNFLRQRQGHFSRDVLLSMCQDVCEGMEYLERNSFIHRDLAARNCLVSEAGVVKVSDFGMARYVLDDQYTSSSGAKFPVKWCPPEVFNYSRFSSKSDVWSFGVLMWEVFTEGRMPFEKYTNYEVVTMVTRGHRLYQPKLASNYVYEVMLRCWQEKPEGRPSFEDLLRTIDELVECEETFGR

[2] = target: T2, Homeodomain-interacting protein kinase 4 (Homo sapiens) (UniProt Q8NE63); experiment: Inhibition of HIPK4 (unknown origin) assessed as remaining activity at 1 uM by Kinome scan method relative to control
T2 sequence (whole entry): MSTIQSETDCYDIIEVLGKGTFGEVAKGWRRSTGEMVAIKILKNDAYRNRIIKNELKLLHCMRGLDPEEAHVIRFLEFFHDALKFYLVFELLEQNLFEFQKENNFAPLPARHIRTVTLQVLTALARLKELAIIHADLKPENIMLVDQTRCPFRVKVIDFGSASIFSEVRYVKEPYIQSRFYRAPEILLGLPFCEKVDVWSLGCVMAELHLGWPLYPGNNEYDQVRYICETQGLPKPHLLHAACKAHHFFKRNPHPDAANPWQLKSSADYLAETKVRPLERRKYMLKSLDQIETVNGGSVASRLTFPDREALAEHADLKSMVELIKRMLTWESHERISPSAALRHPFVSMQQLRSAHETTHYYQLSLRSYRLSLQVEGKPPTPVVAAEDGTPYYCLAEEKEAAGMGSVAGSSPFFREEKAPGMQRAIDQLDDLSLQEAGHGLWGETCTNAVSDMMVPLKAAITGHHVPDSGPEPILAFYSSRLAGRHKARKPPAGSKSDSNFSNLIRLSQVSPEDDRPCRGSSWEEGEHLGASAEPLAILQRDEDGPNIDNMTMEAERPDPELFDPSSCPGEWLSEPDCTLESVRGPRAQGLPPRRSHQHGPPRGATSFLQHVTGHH

[3] = target: TRAF2 and NCK-interacting protein kinase (Homo sapiens) (UniProt Q9UKE5); experiment: Inhibition of TNIK (unknown origin) assessed as remaining activity at 1 uM by Kinome scan method relative to control
[4] = target: T3, Tyrosine-protein kinase ITK/TSK (Homo sapiens) (UniProt Q08881); experiment: Inhibition of ITK (unknown origin) assessed as remaining activity at 1 uM by Kinome scan method relative to control
T3 sequence (whole entry): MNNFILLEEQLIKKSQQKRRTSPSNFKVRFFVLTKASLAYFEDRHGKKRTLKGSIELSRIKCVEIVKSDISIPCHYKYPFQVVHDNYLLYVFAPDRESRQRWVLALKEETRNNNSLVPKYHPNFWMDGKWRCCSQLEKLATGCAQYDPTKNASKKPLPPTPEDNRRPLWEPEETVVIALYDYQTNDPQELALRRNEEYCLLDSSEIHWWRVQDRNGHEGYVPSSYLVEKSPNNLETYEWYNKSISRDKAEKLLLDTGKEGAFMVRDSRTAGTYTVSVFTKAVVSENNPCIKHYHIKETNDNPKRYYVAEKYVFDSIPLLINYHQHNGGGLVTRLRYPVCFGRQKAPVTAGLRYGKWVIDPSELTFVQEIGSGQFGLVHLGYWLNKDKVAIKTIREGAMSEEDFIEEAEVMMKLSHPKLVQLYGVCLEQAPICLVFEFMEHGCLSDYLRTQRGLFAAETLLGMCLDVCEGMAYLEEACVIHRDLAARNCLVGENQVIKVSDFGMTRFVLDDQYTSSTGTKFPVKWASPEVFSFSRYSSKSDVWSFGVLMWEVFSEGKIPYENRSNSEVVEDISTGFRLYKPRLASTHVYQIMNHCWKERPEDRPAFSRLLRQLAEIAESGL

[5] = target: T4, Myosin light chain kinase (Homo sapiens) (UniProt Q32MK0); experiment: Inhibition of MLCK (unknown origin) assessed as remaining activity at 1 uM by Kinome scan method relative to control
T4 sequence (whole entry): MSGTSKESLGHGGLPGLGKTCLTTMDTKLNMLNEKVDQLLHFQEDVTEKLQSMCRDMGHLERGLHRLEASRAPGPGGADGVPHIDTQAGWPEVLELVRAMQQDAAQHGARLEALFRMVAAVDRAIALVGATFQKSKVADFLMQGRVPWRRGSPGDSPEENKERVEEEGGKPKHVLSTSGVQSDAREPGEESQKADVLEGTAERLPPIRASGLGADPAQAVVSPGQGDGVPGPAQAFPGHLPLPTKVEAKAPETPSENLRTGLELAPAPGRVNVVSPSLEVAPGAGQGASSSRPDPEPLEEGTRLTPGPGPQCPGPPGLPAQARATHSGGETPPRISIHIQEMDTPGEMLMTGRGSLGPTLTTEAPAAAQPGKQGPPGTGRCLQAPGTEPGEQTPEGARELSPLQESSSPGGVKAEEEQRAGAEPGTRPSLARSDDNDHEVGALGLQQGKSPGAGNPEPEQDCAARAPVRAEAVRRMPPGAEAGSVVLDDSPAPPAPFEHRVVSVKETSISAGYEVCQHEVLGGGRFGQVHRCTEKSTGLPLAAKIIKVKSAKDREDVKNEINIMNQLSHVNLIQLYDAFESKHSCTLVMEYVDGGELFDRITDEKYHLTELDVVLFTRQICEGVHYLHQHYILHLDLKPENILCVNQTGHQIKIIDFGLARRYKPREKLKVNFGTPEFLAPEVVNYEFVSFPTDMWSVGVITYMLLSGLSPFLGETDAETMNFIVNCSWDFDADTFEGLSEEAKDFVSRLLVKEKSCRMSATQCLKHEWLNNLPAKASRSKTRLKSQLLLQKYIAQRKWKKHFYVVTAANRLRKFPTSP

[6] = target: cAMP-dependent protein kinase catalytic subunit alpha (Homo sapiens) (UniProt P17612); experiment: Inhibition of PKAC-alpha (unknown origin) assessed as remaining activity at 1 uM by Kinome scan method relative to control

Sequence of TRAF2 and NCK-interacting protein kinase (Homo sapiens) (Q9UKE5 whole entry, looked up): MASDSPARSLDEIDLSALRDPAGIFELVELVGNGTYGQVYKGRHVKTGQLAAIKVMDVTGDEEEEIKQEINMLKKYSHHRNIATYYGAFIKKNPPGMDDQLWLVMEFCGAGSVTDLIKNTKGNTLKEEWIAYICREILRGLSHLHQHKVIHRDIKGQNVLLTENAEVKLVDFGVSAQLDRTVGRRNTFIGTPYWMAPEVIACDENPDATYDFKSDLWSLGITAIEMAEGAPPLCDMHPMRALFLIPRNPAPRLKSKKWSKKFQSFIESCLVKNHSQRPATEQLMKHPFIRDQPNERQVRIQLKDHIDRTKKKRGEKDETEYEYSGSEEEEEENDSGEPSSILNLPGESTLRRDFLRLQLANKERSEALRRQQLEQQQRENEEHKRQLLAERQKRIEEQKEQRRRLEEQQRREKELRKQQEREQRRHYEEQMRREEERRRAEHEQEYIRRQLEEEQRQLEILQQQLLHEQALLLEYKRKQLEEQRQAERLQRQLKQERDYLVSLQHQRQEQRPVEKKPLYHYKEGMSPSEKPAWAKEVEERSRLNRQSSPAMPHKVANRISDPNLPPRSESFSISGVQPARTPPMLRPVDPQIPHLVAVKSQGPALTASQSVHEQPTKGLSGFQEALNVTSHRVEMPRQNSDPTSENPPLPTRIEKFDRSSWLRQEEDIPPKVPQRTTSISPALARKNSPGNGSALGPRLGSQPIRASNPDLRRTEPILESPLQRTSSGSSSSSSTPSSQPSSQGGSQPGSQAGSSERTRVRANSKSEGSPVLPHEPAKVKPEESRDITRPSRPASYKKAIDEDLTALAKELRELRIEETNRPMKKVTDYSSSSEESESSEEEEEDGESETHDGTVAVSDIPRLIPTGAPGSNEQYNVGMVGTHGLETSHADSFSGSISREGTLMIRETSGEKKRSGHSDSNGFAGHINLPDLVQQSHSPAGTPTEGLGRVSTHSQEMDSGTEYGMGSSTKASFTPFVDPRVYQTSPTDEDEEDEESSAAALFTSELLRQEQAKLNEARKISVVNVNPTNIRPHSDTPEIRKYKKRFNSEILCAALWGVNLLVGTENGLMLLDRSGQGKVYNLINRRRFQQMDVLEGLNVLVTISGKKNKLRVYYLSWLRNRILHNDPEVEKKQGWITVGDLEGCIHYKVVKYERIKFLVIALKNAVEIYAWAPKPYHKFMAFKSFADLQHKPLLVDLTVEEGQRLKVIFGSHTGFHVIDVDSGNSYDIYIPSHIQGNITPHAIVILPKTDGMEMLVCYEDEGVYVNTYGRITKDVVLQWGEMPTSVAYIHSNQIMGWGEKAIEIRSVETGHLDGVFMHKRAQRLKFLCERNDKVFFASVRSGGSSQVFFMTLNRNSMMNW

| Structure (SMILES) | Activity [1] [%] | Activity [2] [%] | Activity [3] [%] | Activity [4] [%] | Activity [5] [%] | Activity [6] [%] |
| --- | --- | --- | --- | --- | --- | --- |
| Nc1ccccc1Nc1ccc2c(c1)CCc1ccccc1C2=O | 98 | 97 | 90 | 98 | 85 | 83 |
| O=C1c2ccc(Nc3ccc(F)cc3F)cc2CCc2ccc(OC[C@H](O)CO)cc21 [Skepinone-L] | 99 | 100 | 93 | 100 | 100 | 95 |
